These are literature values, as cited in patent US20230124124A1, “COMPOSITIONS AND METHODS FOR MYOPIA CONTROL AND ORTHOKERATOLOGY LENSES TREATMENT” (Ocular Science, Inc., priority 2021, published 2023).

In series [1] the test system is human corneal epithelial cells. The conditions noted are these: 0.01% BAK; within hours.
The subject of a further series is corneas. The conditions noted are these: one week of treatment.

With benzalkonium chloride [BAK], the “effect on human corneal epithelial cells” value in series [1] is “immediate cell retraction, cessation of normal cytokinesis and mitotic activity, and degeneration of human corneal epithelial cells”. Further, in the series with corneas, the aqueous tear production entry is on record as “significantly reduced”, the fluorescein staining entry is listed as “increased”, the inflammatory cell infiltration result is recorded as “increased” and the “stromal nerve fiber density (NFD)” value is “significantly reduced”.
